Test results as given in the NIST ThermoML archive (doi:10.1016/j.fluid.2017.06.018).

Key:
[1] = xn = mol fraction of the nth substance listed; conditions: 100 kPa, Liquid; for viscosity: Falling or rolling sphere viscometry; for mass density: Vibrating tube method
[2] = refractive index (Na D-line) (dimensionless); xn = mol fraction of the nth substance listed; conditions: 100 kPa, Liquid, Standard Abbe refractometry

NCCNCCN [di(2-aminoethyl)amine] + NCCO
Conditions | mass density, 298.15 K [kg/m3] | mass density, 303.15 K [kg/m3] | mass density, 308.15 K [kg/m3] | refractive index, 298.15 K | refractive index, 303.15 K | refractive index, 308.15 K | viscosity, 298.15 K [mPa·s] | viscosity, 303.15 K [mPa·s] | viscosity, 308.15 K [mPa·s]
[1], x2 = 0 | 945.8 | 942.1 | 937.8 | – | – | – | 5.63 | 4.5 | 3.85
[1], x2 = 0.1619 | 956.5 | 953.1 | 949.1 | – | – | – | 8.28 | 6.59 | 5.38
[1], x2 = 0.2973 | 964.6 | 961.1 | 957.1 | – | – | – | 10.37 | 8.33 | 6.68
[1], x2 = 0.4258 | 972.6 | 969 | 965.3 | – | – | – | 12.15 | 9.76 | 7.8
[1], x2 = 0.5307 | 979.4 | 975.9 | 972.3 | – | – | – | 13.87 | 11.18 | 8.89
[1], x2 = 0.6308 | 986.3 | 982.8 | 979.2 | – | – | – | 15.47 | 12.48 | 9.99
[1], x2 = 0.7174 | 992.7 | 989.2 | 985.6 | – | – | – | 16.82 | 13.6 | 10.89
[1], x2 = 0.798 | 998.7 | 995.5 | 992 | – | – | – | 18.22 | 14.73 | 11.84
[1], x2 = 0.879 | 1005.1 | 1001.7 | 998.5 | – | – | – | 19.23 | 15.49 | 12.42
[1], x2 = 0.9336 | 1008.9 | 1005.6 | 1002.4 | – | – | – | 19.31 | 15.49 | 12.34
[2], x2 = 0 | – | – | – | 1.4822 | 1.4808 | 1.4793 | – | – | –
[2], x2 = 0.0989 | – | – | – | 1.4815 | 1.4802 | 1.4791 | – | – | –
[2], x2 = 0.2021 | – | – | – | 1.4806 | 1.4791 | 1.4778 | – | – | –
[2], x2 = 0.3013 | – | – | – | 1.4794 | 1.4778 | 1.4765 | – | – | –
[2], x2 = 0.4007 | – | – | – | 1.4778 | 1.4764 | 1.4752 | – | – | –
[2], x2 = 0.4984 | – | – | – | 1.4758 | 1.4743 | 1.4729 | – | – | –
[2], x2 = 0.6007 | – | – | – | 1.4731 | 1.4717 | 1.4703 | – | – | –
[2], x2 = 0.7027 | – | – | – | 1.4696 | 1.4683 | 1.467 | – | – | –
[2], x2 = 0.8002 | – | – | – | 1.4657 | 1.4643 | 1.4631 | – | – | –
[2], x2 = 0.8987 | – | – | – | 1.4608 | 1.4591 | 1.4577 | – | – | –

NCCNCCO [N-(2-aminoethyl)ethanolamine] + NCCO
Conditions | mass density, 298.15 K [kg/m3] | mass density, 303.15 K [kg/m3] | mass density, 308.15 K [kg/m3] | refractive index, 298.15 K | refractive index, 303.15 K | refractive index, 308.15 K | viscosity, 298.15 K [mPa·s] | viscosity, 303.15 K [mPa·s] | viscosity, 308.15 K [mPa·s]
[1], x2 = 0 | 1025.8 | 1021.3 | 1016.3 | – | – | – | 98.62 | 70.57 | 53.11
[1], x2 = 0.1072 | 1025.7 | 1021.4 | 1016.6 | – | – | – | 95.09 | 69.25 | 52.77
[1], x2 = 0.2634 | 1025.2 | 1020.9 | 1016.2 | – | – | – | 90.58 | 67.59 | 52.68
[1], x2 = 0.4233 | 1024.4 | 1020.2 | 1015.7 | – | – | – | 78.29 | 59.5 | 46.92
[1], x2 = 0.5481 | 1023.4 | 1019.3 | 1014.9 | – | – | – | 64.72 | 48.92 | 38.49
[1], x2 = 0.6305 | 1022.5 | 1018.4 | 1014.1 | – | – | – | 53.12 | 39.84 | 31.01
[1], x2 = 0.6851 | 1021.7 | 1017.6 | 1013.4 | – | – | – | 44.75 | 32.81 | 25.15
[1], x2 = 0.7988 | 1019.4 | 1015.5 | 1011.4 | – | – | – | 27.93 | 20.04 | 14.71
[1], x2 = 0.8459 | 1018.2 | 1014.3 | 1010.3 | – | – | – | 22.36 | 15.94 | 11.31
[1], x2 = 0.9377 | 1015.2 | 1011.4 | 1007.5 | – | – | – | 17.18 | 12.82 | 9.55
[2], x2 = 0 | – | – | – | 1.4843 | 1.4827 | 1.4811 | – | – | –
[2], x2 = 0.1005 | – | – | – | 1.4824 | 1.481 | 1.4796 | – | – | –
[2], x2 = 0.1993 | – | – | – | 1.4799 | 1.4785 | 1.4771 | – | – | –
[2], x2 = 0.299 | – | – | – | 1.4774 | 1.476 | 1.4745 | – | – | –
[2], x2 = 0.4047 | – | – | – | 1.4742 | 1.4728 | 1.4715 | – | – | –
[2], x2 = 0.5033 | – | – | – | 1.4714 | 1.47 | 1.4685 | – | – | –
[2], x2 = 0.5985 | – | – | – | 1.4683 | 1.4668 | 1.4652 | – | – | –
[2], x2 = 0.6981 | – | – | – | 1.4647 | 1.4633 | 1.462 | – | – | –
[2], x2 = 0.7985 | – | – | – | 1.4611 | 1.4598 | 1.4585 | – | – | –
[2], x2 = 0.8996 | – | – | – | 1.4573 | 1.4559 | 1.4545 | – | – | –
